The values that follow come from patent US12685709B2, “Solid solution compositions and use in chronic inflammation” (Infirst Healthcare Limited, priority 2011, dated 2026).

The test system of data set [1] is TBS-induced colitis murine model. In words: Animal model for inflammatory bowel disease (TNBS-induced colitis). The format is in vivo, C57BI/6 male mice. To be noted: for Mean Colon Length / Mean Colon Weight / Mean Animal Weight: TNBS colitis; for Mean Colon Length / Mean Colon Weight / Endoscopy Colitis Severity Score Day 5: day 5; for Mean Animal Weight: oral dosing day -1 to day 5, Prednisolone 3 mg/kg, ibuprofen 20 mg/kg, BC1054-20 20 mg/kg, BC1054-30 30 mg/kg; for Endoscopy Colitis Severity Score Day 3 / Endoscopy Colitis Severity Score Day 5: video endoscopy, scale 0 to 4. On the procedure: To assess the effectiveness of a pharmaceutical composition disclosed herein in treating an inflammatory bowel disease, experiments were conducted using a […] colitis murine model.
C57BI/6 male mice (6-7 weeks old) were divided into seven experimental groups containing at least ten animals each. On day 0, colitis was induced in mice from Groups B-G by intrarectal administration of 100 μL of TNBS (4 mg) in 50% ethanol under isoflurane anesthesia. Animals were dosed either once or three times a day from day −1 to day 5 with one of seven different treatments. Group A was a control in which each mouse was orally administered ethanol vehicle only. Group B was a control in which each mouse was orally administered 1% methylcellulose vehicle only. Group C was a control in which each mouse was orally administered solvent/adjuvant vehicle only (gavage of 10% ethanol and 90% linseed oil). Group D was a control in which each mouse was orally administered 3 mg/kg of Prednisolone. Group E was a control in which each mouse was orally administered 20 mg/kg of ibuprofen suspended in 1% methylcellulose (1 ml/kg) (no adjuvant). Group F was the experimental group in which each mouse was administered a pharmaceutical composition disclosed herein (BC1054-20) comprising 20 mg/kg of ibuprofen, 10% ethanol, and 90% linseed oil. Group G was the experimental group in which each mouse was administered a pharmaceutical composition disclosed herein (BC1054-30) comprising 30 mg/kg of ibuprofen, 10% ethanol, and 90% linseed oil. All animals were weighed daily and assessed visually for the presence of diarrhea and/or bloody stool. On day 3 and on day 5 colitis severity was assessed in all animals using video endoscopy, where images were taken and colitis severity scored visually by a blinded observer on a scale from 0 to 4 as follows: 0, normal; 1, loss of vascularity; 2, loss of vascularity and friability; 3, friability and erosions; and 4, ulcerations and bleeding. Following endoscopy on day 5, animals were sacrificed and the colon removed and its length and weight measured. Serum samples were obtained and the colon was fixed in 10% formalin. An additional piece of colon tissue was collected, weighed, and snap frozen in liquid nitrogen.

Data set [2] concerns intestinal erosion murine model. The data set is described as follows: Animal model for intestinal erosion (gastric irritation score). In kind it is in vivo, Sprague-Dawley rats. To be noted: for Mean Ulceration Score: 4 hours after treatment, score 0-4. On the procedure: To assess whether a pharmaceutical composition disclosed herein reduced gastric irritation, experiments were conducted using an intestinal erosion murine model.
Sprague-Dawley rats were divided into seven experimental groups containing five animals each. After fasting overnight, the animals were challenged with one with one of seven different treatments. Group A was a control in which each mouse was orally administered 1% methylcellulose/0.5% polysorbate 80 vehicle only. Group B was a control in which each mouse was orally administered solvent/adjuvant vehicle only (gavage of 10% ethanol and 90% linseed oil). Group C was a control in which each mouse was orally administered 150 mg/kg aspirin. Group D was a control in which each mouse was orally administered 100 mg/kg ibuprofen suspended in 1% methylcellulose/0.5% polysorbate 80. Group E was the experimental group in which each mouse was administered a pharmaceutical composition disclosed herein (BC1054-100) comprising 100 mg/kg of ibuprofen, 10% ethanol, and 90% linseed oil. Group F was a control in which each mouse was orally administered 100 mg/kg ibuprofen suspended in 1% methylcellulose/0.5% polysorbate 80. Group G was the experimental group in which each mouse was administered a pharmaceutical composition disclosed herein (BC1054-200) comprising 200 mg/kg of ibuprofen, 10% ethanol, and 90% linseed oil. Animals were sacrificed 4 hours after treatment and the stomachs were examined for degree of hemorrhage and severity of mucosal erosive lesions. Gastric irritation was scored as follows: 0, no lesions; 1, hyperemia; 2, one or two slight lesions; 3, more than two slight lesions or severe lesions; and 4, very severe lesions. A score of 50% or more relative to Group C (aspirin-treated control group), which was set to 100%, was considered a positive score for gastric irritation.

Data set [3] concerns α-collagen antibody induced arthritis (ACAIA) murine model. The data set is described as follows: Alpha-collagen antibody induced arthritis (ACAIA) model for systemic arthritis. In kind it is in vivo, Male BALB/c mice. To be noted: for mean paw thickness compared to vehicle-treated Group 1M (significance): ANOVA with Tukey post hoc. As for the experimental part:
To assess the effectiveness of a pharmaceutical composition disclosed herein in treating arthritis, experiments were conducted using an α-collagen antibody induced arthritis (ACAIA) murine model that mimics a systemic arthritis like rheumatoid arthritis.
Male BALB/c mice were divided into eight groups, each containing 10 animals. To induce arthritic symptoms, mice from all eight groups were intravenously injected with 200 μL of an antibody solution comprising a 2 mg cocktail of four α-collagen II monoclonal antibodies (ARTHRITOMAB™, MD Biosciences) on study day 0 (study commencement), followed by a 200 μL intraperitoneal injection of a solution containing 100 μg lipopolysaccharide (LPS) on study day 3. Each group was subjected daily to a control or test treatment administered from day 0-11 as follows: Group 1 mice (1M) were treated orally with a vehicle preparation containing 1% methyl cellulose administered thrice daily; Group 2 mice (2M) were treated intraperitoneally with a positive control preparation containing 10 mg/kg etanercept (ENBREL®, Wyeth) administered once daily; Group 3 mice (3M) were treated orally with a 20 mg/kg test liquid formulation comprising ibuprofen and rapeseed oil (BC1054 LF-RO) administered once daily; Group 4 mice (4M) were treated orally with a 20 mg/kg test liquid formulation comprising ibuprofen and rapeseed oil (BC1054 LF-RO) administered thrice daily; Group 5 mice (5M) were treated orally with a 20 mg/kg test liquid formulation comprising ibuprofen and a glyceryl monolinoleate (MAISINE™ 35-1, Gattefosse) (BC1054 LF-MA) administered thrice daily; Group 6 mice (6M) were treated orally with a 20 mg/kg test solid formulation comprising ibuprofen and theobroma oil (BC1054 LF-TO) administered thrice daily; Group 7 mice (7M) were treated orally with a control preparation 1 comprising 20 mg/kg of ibuprofen administered thrice daily; and Group 8 mice (8M) were treated orally with a 20 mg/kg test solid formulation comprising ibuprofen and a waxy solid having a melting point of between 37° C. to 41° C. and comprising a mixture of saturated C10-C18 triglycerides ([…]® 39/01, Gattefosse) (BC1054 LF-GE) administered thrice daily (Table 6). The dose administered was calculated based on the assumption that each animal weighed, on average, 20 g. A fixed volume of 100 μL was administered to each mouse, except those animals receiving the positive control (2M) were administered 200 μL.
Arthritic development and clinical examinations were monitored in all mice on study day 0 shortly before arthritis induction and subsequently on study days 3-7, 9, 10 and 12 (study termination). To access arthritic development, both an arthritis score and paw thickness (plethysmography) measurements were obtained. The arthritis score was based on visual assessment of arthritis reactions using a 0-4 scale in ascending order of severity with Grade 0 indicating no arthritis reaction; Grade 1 indicating mild, but definite redness and swelling of the ankle/wrist or apparent redness and swelling limited to individual digits, regardless of the number of affected digits; Grade 2 indicating moderate to severe redness and swelling of the ankle/wrist; Grade 3 indicating redness and swelling of the entire paw including digits; and Grade 4 indicating maximally inflamed limb with involvement of multiple joints. Paw thickness was measured for both hind paws just above the foot pad and below the calcaneum using a dial caliper (Kroeplin, Munich, Germany). Mean values for paw thickness measurements were determined, and where appropriate, analysis of the data by ANOVA with Tukey post hoc analysis was applied to determine significance of treatment effects.
Clinical examinations included changes in body weight, condition of skin, fur, eyes, mucous membranes, occurrence of secretions and excretions (e.g. diarrhea), and autonomic activity (e.g. lacrimation, salivation, piloerection, pupil size, unusual respiratory pattern). […]

Data set [4] relates to U937 monocyte cell line differentiated into macrophages. To be noted: % therapeutic compound taken up by macrophages after 45 minutes incubation, HPLC; N=2.
Description: Cultures of U937 monocyte cell line were grown in RPMI-1640 supplemented with 10% fetal calf serum (FCS) until the cells reached 90% confluent monolayer. These cells were then treated with PMA and incubated in a 37° C. incubator under 5% carbon dioxide until the cells differentiated into macrophages. […] After incubation for 45 minutes the test solution supernatants were removed and saved for analysis, and the cells were then washed in PBS several times and lysed using two cycles of freeze-thawing. Therapeutic compound concentration present in the test solution, test solution supernatant, and cell lyste fractions was measured by HPLC. The percentage therapeutic compound taken up by the macrophages was calculated using the following formula: % therapeutic compound adsorbed=100×(compound mass recovered from cell lysate)/(compound mass delivered in test solution−compound mass recovered from test solution supernatant).
The mark [5] stands for this setting: statistical comparison, doses as E9.
Setting [6] is: day 6, 20 mg/kg PO thrice daily (Groups 4M-8M).

Values joined by “and” are separate entries in the source; they are usually repeats but may differ in a detail not shown here. Equal values may be shown once.

Take `C[C@]12C=CC(=O)C=C1CC[C@@H]1[C@@H]2[C@@H](O)C[C@@]2(C)[C@H]1CC[C@]2(O)C(=O)CO` [Prednisolone]: in data set [1] (doses as E9), the Mean Colon Length turned out to be 8.4 cm, the “Mean Colon Weight” value is 267 mg, the “Endoscopy Colitis Severity Score Day 3” value is recorded as 2.3^7 and the “Endoscopy Colitis Severity Score Day 5” value is 1.7^8. Further, in data set [1], the “Mean Animal Weight” value worked out at 23.33 g. Further, in data set [1] (setting [5]), the “mean colitis scores compared to Group B (TNBS-treated control group)” value is “statistically significant reduced mean colitis scores on both day 3 and day 5”; the “mean colon length compared to Group B (TNBS-treated control group)” value is recorded as “statistically significant increase in mean colon length”.
As to `CC(=O)Oc1ccccc1C(=O)O` [aspirin], the “% Aspirin Erosion” value in data set [2] (Group C, 150 mg/kg aspirin, set to 100%) is listed as “(100) %”. In addition, the “Mean Ulceration Score” value in data set [2] (Group C, 150 mg/kg oral) came out at 4.
As for `CC(C)Cc1ccc(C(C)C(=O)O)cc1` (stereo not drawn) [ibuprofen], in data set [1] (doses as E9), the “Mean Colon Length” value was 7.9 cm. In data set [1] (doses as E9), the “Mean Colon Weight” value is 267 mg. In addition, the “Mean Animal Weight” value in data set [1] came out at 23.82 g. The “Endoscopy Colitis Severity Score Day 3” value in data set [1] (doses as E9) is 2.7. Also, in data set [1] (doses as E9), the “Endoscopy Colitis Severity Score Day 5” value is listed as 2.2. Besides, the “% Aspirin Erosion” value in data set [2] (100 mg/kg ibuprofen (Groups D, E), relative to Group C, 50% or more = positive score for gastric irritation) is 75% and 75^1%; in data set [2] (200 mg/kg ibuprofen (Groups F, G), relative to Group C, 50% or more = positive score for gastric irritation), 95% and 95^1%. Besides, the “Mean Ulceration Score” value is listed as 3 in data set [2] (100 mg/kg ibuprofen oral (Groups D, E)) and 3.8 in data set [2] (200 mg/kg ibuprofen oral (Groups F, G)). Also, the “mean paw thickness compared to vehicle-treated Group 1M (significance)” value in data set [3] (20 mg/kg PO thrice daily (Groups 4M-8M)) is given as “No significant differences were observed”. Further, the “Mean Rear Paw Thickness” value in data set [3] (day 0, 20 mg/kg PO thrice daily (Groups 4M-8M), 20 mg/kg) is 1.71±0.02 mm and 1.71 mm; in data set [3] (day 3, 20 mg/kg PO thrice daily (Groups 4M-8M)) it was 1.72 mm; in data set [3] (day 4, 20 mg/kg PO thrice daily (Groups 4M-8M)), 1.64 mm; in data set [3] (day 5, 20 mg/kg PO thrice daily (Groups 4M-8M)) it was 1.71 mm; in data set [3] (setting [6]) it was 1.90 mm; in data set [3] (day 7, 20 mg/kg PO thrice daily (Groups 4M-8M), 20 mg/kg), 2.15±0.10 mm and 2.15 mm. In addition, the “Mean Rear Paw Thickness” value in data set [3] (day 9, 20 mg/kg PO thrice daily (Groups 4M-8M)) was 2.08 mm; in data set [3] (day 10, 20 mg/kg PO thrice daily (Groups 4M-8M)) it was 2.07 mm; in data set [3] (day 12, 20 mg/kg PO thrice daily (Groups 4M-8M), 20 mg/kg) it was 2.02±0.08 mm and 2.02 mm. For the same molecule, the Arthritis incidence in data set [3] (setting [6]) is reported as 8/10.
On to `CC(C)Cc1ccc(C(C)C(=O)O)cc1` (stereo not drawn) [Formulation C, ibuprofen free acid], for which the “Mean Mass Compound Uptake” value in data set [4] turned out to be 0.4%.
For the molecule Etanercept, in data set [3] (once daily dosing (Groups 2M, 3M)), the “mean paw thickness compared to vehicle-treated Group 1M (significance)” value is “significantly decreased paw volume compared to the positive control mice on days 9, 10 and 12”. The “Mean Rear Paw Thickness” value in data set [3] (day 0, once daily (Etanercept 10 mg/kg IP, Group 2M; BC1054 LF-RO 20 mg/kg PO, Group 3M)) is 1.70±0.02 mm and 1.70 mm; in data set [3] (day 3, once daily (Etanercept 10 mg/kg IP, Group 2M; BC1054 LF-RO 20 mg/kg PO, Group 3M)), 1.73 mm; in data set [3] (day 4, once daily (Etanercept 10 mg/kg IP, Group 2M; BC1054 LF-RO 20 mg/kg PO, Group 3M)) it was 1.64 mm; in data set [3] (day 5, once daily (Etanercept 10 mg/kg IP, Group 2M; BC1054 LF-RO 20 mg/kg PO, Group 3M)) it was 1.63 mm; in data set [3] (day 6, once daily (Etanercept 10 mg/kg IP, Group 2M; BC1054 LF-RO 20 mg/kg PO, Group 3M)) it was 1.96±0.05 mm and 1.96 mm; in data set [3] (day 7, once daily (Etanercept 10 mg/kg IP, Group 2M; BC1054 LF-RO 20 mg/kg PO, Group 3M)), 1.95 mm. The “Mean Rear Paw Thickness” value in data set [3] (day 9, once daily (Etanercept 10 mg/kg IP, Group 2M; BC1054 LF-RO 20 mg/kg PO, Group 3M)) was 1.88 mm; in data set [3] (day 10, once daily (Etanercept 10 mg/kg IP, Group 2M; BC1054 LF-RO 20 mg/kg PO, Group 3M)), 1.80 mm; in data set [3] (day 12, once daily (Etanercept 10 mg/kg IP, Group 2M; BC1054 LF-RO 20 mg/kg PO, Group 3M)), 1.77±0.02 mm and 1.77 mm. The Arthritis incidence in data set [3] (day 6, once daily dosing (Groups 2M, 3M)) is listed as 9/10; in data set [3] (day 12, once daily dosing (Groups 2M, 3M)) it was 1/10.
